From PubChem BioAssay AID179 (DTP/NCI, 2004) come the findings set out here.

The test system of this test is CEM cells HIV-1 protection, formazan growth assay. Put plainly: NCI AIDS Antiviral Assay. Conditions: for IC50: measured here: growth of uninfected CEM cells. In outline:
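Steps: treat uninfected and HIV-1-infected human CEM cells at five drug levels; quantify growth by soluble formazan; retest any compound reaching 50% protection; classify actives from the retest.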

The term EC50 denotes the midpoint of the concentration-response curve. A word on the IC50: it is the concentration that gives 50% inhibition. High values mean a need for much substance, low ones inhibition by little substance.

SMILES strings stand for the structures. Activity calls are given as the source filed them.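 Rule for the calls: active = compounds giving half or more protection of infected cells from virus-caused growth loss, again on retest; inactive = the rest.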

With `COc1ccc2c(c1OC)C(C=C(c1ccccc1)c1ccccc1)CN(C)C2` (centres undefined), the EC50 was more than 93.3 µM and the IC50 turned out to be 15.8 µM.

`CCC1(OC(C)=O)C(=O)OCc2c1cc1n(c2=O)Cc2cc3ccccc3nc2-1` (centres undefined): the EC50 was more than 10 µM and the IC50 came out at 0.129 µM.

As to `CN1C[C@@H]2CC(=O)CC[C@@H]2C[C@H]1C#N`, the EC50 is more than 676 µM and the IC50 stood at 339 µM. With `CN(C)c1ccc(-c2c(C#N)c(O)n(NS(=O)(=O)c3ccccc3)c(=O)c2C#N)cc1`, the EC50 is more than 200 µM and the IC50 is more than 200 µM. `COc1ccc2nc(/N=C/N(C)C)sc2c1`: the EC50 is more than 200 µM and the IC50 is more than 200 µM. With `Cc1ccc(O)c(-c2cscn2)c1`, the EC50 is more than 200 µM and the IC50 turned out to be 107 µM.

In the case of `CCOC(=O)c1c(-c2ccc(Cl)cc2)c(C#N)c(=S)n(C2OC(CO)C(O)C(O)C2O)c1-c1ccccc1` (centres undefined), the EC50 was more than 200 µM and the IC50 turned out to be 34.7 µM.

With `O=C(NNC(=O)c1ccccc1SSc1ccccc1C(=O)NNC(=O)c1ccccc1S)c1ccccc1S`, the EC50 was 17.8 µM and the IC50 is 33.1 µM. Regarding `CC/C(Cl)=N\OC(=O)Nc1ccc(F)c(Cl)c1`, the outcome was inactive. The same measure, in the same setting: the entry for `O=C(NCCCCCCNC(=O)NC1OCC(O)C(O)C1O)NC1OCC(O)C(O)C1O` (centres undefined) is “inactive”. In the case of `CSc1nc(=O)n(CCC#N)nc1SC`, the EC50 is more than 200 µM and the IC50 turned out to be 29.5 µM. For the compound `O=c1c2ccccc2nc2ccc3c(Cl)[nH][nH]c3c12`, the result was inactive. Consider `COc1cc2c(c(OC)c1OC)C(=O)[C@@H]1[C@H]2N1C(N)=O`, for which the EC50 was more than 200 µM and the IC50 was found to be 4.17 µM. For the compound `O=[N+]([O-])c1ccc(C(O)(C#CCN2CCCC2)c2ccccc2)cc1` (centres undefined), the EC50 was more than 200 µM and the IC50 is more than 100 µM. Regarding `O=C1Cc2c([nH]c3c(Cl)cccc23)-c2ccccc2N1`, the EC50 was more than 200 µM and the IC50 was determined as 11.5 µM. In the case of `O=C(CCCN1CCC(C(=O)c2ccc(F)cc2)CC1)c1ccc(F)cc1`, the EC50 was more than 24.5 µM and the IC50 was more than 24.5 µM. For `Nc1ncnc2c1ccn2CC=C(CO)CO`, the EC50 was more than 200 µM and the IC50 is more than 200 µM.

Regarding `CC1CN=C(NS(=O)(=O)c2cc(C(=O)Nc3ccccc3)c(Cl)cc2S)NN1` (centres undefined), the EC50 is more than 200 µM and the IC50 was 19.1 µM. Take `CC12CCC(C(=Nc3cc(C(F)(F)F)cc(C(F)(F)F)c3)C1=O)C2(C)C` (centres undefined): the EC50 was more than 200 µM and the IC50 was 37.2 µM. For the compound `CS1(=O)=NC(=N)c2ccccc21` (centres undefined), the outcome was inactive. In the case of `CCn1c(=O)[nH]c(=O)c2conc21`, the EC50 is more than 1380 µM and the IC50 turned out to be 661 µM. For `O=c1c(SCc2cccc(F)c2)c(SCc2cccc(F)c2)cnn1-c1ccccc1` the same measures were more than 30.2 µM and 21.9 µM. For the compound `Oc1cc2c(cc1O)-c1[nH]ncc1CC2`, the EC50 was more than 67.6 µM and the IC50 is 33.1 µM. With `Cc1ccc(/C([O-])=C(\C(=S)Nc2cccc(C(F)(F)F)c2)[n+]2ccccc2)cc1`, the EC50 is more than 200 µM and the IC50 worked out at 89.1 µM. As to `OCCN1CSC(=S)NCCNC(=S)SC1`, the EC50 was more than 63.1 µM and the IC50 is more than 63.1 µM. With `CCOC(=O)/C(N=Nc1ccc(-n2c(C)nc3ccc(Br)cc3c2=O)cc1)=C(/C)O`, the EC50 is more than 200 µM and the IC50 was determined as 39.8 µM. Regarding `CCCc1cc(=O)oc2c3c(cc(OC)c12)O[C@H](C)[C@H](C)C3=O`, the EC50 is more than 200 µM and the IC50 is 47.9 µM. The matching figures for `O=C1CCCC(=O)N1n1c(Cc2ccc(Cl)cc2)n[nH]c1=O`: more than 200 µM and more than 200 µM. With `COC(=O)CC(=O)C[P+](c1ccccc1)(c1ccccc1)c1ccccc1`, the EC50 was more than 550 µM and the IC50 turned out to be 42.7 µM. As to `COc1ccc(C(=O)Sc2c(-c3ccccc3)c(=O)n(-c3ccccc3)c(=S)n2-c2ccccc2)cc1`, the EC50 is more than 200 µM and the IC50 stood at 3.31 µM.

Turning to `Nn1c(CCCCCCCCc2nnc(COc3ccc(Cl)cc3)n2N)nnc1COc1ccc(Cl)cc1`, the EC50 is more than 200 µM and the 50% inhibitory concentration (IC50) stood at 85.1 µM. With `Oc1ccccc1C(c1cc2c(cc1O)OCO2)N1CCOCC1` (centres undefined), the EC50 was more than 200 µM and the IC50 came out at 11 µM. The matching figures for `CCCCC1CC(c2ccc(Cl)cc2)=NO1` (centres undefined): more than 21.9 µM and more than 21.9 µM. Turning to `O=c1c2ccccc2nc2n1-c1ccccc1SC2`, the EC50 was more than 97.7 µM and the IC50 is more than 97.7 µM. Consider `O=C(CCCCCCCCC(=O)NN1C(=O)/C(=C\c2ccc(O)c(O)c2)SC1c1c(O)ccc2ccccc12)NN1C(=O)C(=Cc2ccc(O)c(O)c2)SC1c1c(O)ccc2ccccc12` (centres undefined), for which the EC50 was more than 200 µM and the IC50 is 1 µM. Turning to `O=C(/C=C/c1cccs1)c1cccc(C(=O)/C=C/c2cccs2)n1`, the EC50 was more than 200 µM and the IC50 came out at 110 µM.

Consider `CC1OC(OC2C(O)COC(OC3C(C)OC(OC4C(OC(=O)[C@]56CCC(C)(C)C[C@@H]5C5=CCC7[C@@]8(C)C[C@H](O)[C@H](OC9OC(CO)C(O)C(O)C9O)[C@@](C)(CO)[C@@H]8CC[C@@]7(C)[C@]5(C)CC6)OCC(O)C4O)C(O)C3OC3OCC(O)C(O)C3O)C2O)C(O)C(O)C1O` (some centres undefined), for which the EC50 was more than 58.9 µM and the half-maximal inhibitory concentration (IC50) was 19.5 µM. As for `CCOC(=O)C(=O)Nc1nc2ccc(C)cc2s1`, the outcome was inactive.

With `COc1ccc(-c2coc3cc(O)ccc3c2=O)cc1`, the EC50 was more than 200 µM and the IC50 is more than 100 µM. On to `O=C1/C(=C\c2cccc(Oc3ccccc3)c2)SC(c2ccccc2)N1c1cccc([N+](=O)[O-])c1` (centres undefined), for which the EC50 was more than 200 µM and the IC50 is 39.8 µM.

In the case of `COC(=O)N[C@@H]1C[C@H]2CC[C@]1(O[Si](C(C)C)(C(C)C)C(C)C)C(=O)C2`, the EC50 is more than 200 µM and the IC50 amounted to 16.6 µM. Take `N#C/C(=C1/c2cc([N+](=O)[O-])ccc2-c2c1cc([N+](=O)[O-])cc2[N+](=O)[O-])N1CCCCC1`: the EC50 is more than 200 µM and the IC50 is more than 200 µM. For the compound `CCCCCC(=O)n1[nH]c(=O)n(-c2ccc(OC)cc2)c1=O`, the EC50 was more than 200 µM and the IC50 is more than 200 µM. On to `O=c1c2ccccc2n2n1CC(O)C2` (centres undefined), for which the result was inactive. As for `CC(=C(c1ccccc1)c1ccccc1)N1C(=O)CC(=O)N1C`, the EC50 was more than 200 µM and the IC50 was found to be 120 µM. Take `CC1(C)CCCC(C)(C)N1[P-]C(=O)[P-]N1C(C)(C)CCCC1(C)C.[C-]#[O+].[C-]#[O+].[C-]#[O+].[C-]#[O+].[C-]#[O+].[C-]#[O+].[Fe].[Fe]` (centres undefined): the EC50 is more than 2.24 µM and the IC50 is more than 2.24 µM. Consider `COc1ccc(N2C(=O)c3c(c4[nH]c5ccc(OC)cc5c4c4ccc(C(C)(C)C)cc34)C2=O)cc1`, for which the EC50 was more than 11 µM and the IC50 was more than 11 µM.

On to `O=S(=O)(C1=CC(S(=O)(=O)c2ccccc2)COC1)c1ccccc1` (centres undefined), for which the result was inactive. Consider `NNC(=O)c1cc(=O)[nH][nH]1`, for which the EC50 is more than 200 µM and the IC50 is more than 200 µM. On to `O=C1c2cccnc2S(=O)(=O)N1c1ccc([N+](=O)[O-])cc1`, for which the EC50 was more than 200 µM and the IC50 amounted to 23.4 µM. For the compound `CC(=O)/C(=C/c1ccccc1[N+](=O)[O-])C(=O)c1ccccc1`, the EC50 is more than 24.5 µM and the IC50 turned out to be 2.09 µM. With `CCOC(=O)/C(C#N)=C/N(CC)/N=C/c1ccccc1`, the EC50 was more than 200 µM and the IC50 was more than 200 µM. Turning to `O=c1[nH]cc(CCl)c(=O)[nH]1`, the EC50 was more than 200 µM and the IC50 was more than 200 µM. With `CC1=CP(=O)(c2ccccc2)CC1` (centres undefined) (tested in a mixture with another compound), the EC50 is more than 646 µM and the IC50 is more than 646 µM. With `CCCCCCCCOCC(COC(=O)CCCCCCC)OC(=O)CCCCCCC` (centres undefined), the EC50 is more than 151 µM and the IC50 is 37.2 µM. `O=C1CN(c2ccccc2)CC(=O)N2Cc3ccccc3CN12`: the EC50 was more than 44.7 µM and the IC50 is more than 44.7 µM.

As to `COC(=O)C(C)(C)NC(=O)C(Cc1ccccc1)Nc1ncnc2c1ncn2-c1ccc(OC)cc1` (centres undefined), the outcome was inactive and the IC50 is 56.2 µM. On to `C[C@]12CCC3c4ccc(OS(=O)(=O)O)cc4CC[C@H]3C1CC[C@@H]2O` (some centres undefined), for which the outcome was inactive. Regarding `O=c1c2c3c(sc2nc2n1NC=NN2)CCCC3`, the EC50 was more than 20 µM and the IC50 turned out to be 8.51 µM. The matching figures for `CO[C@@H]1[C@H](O)c2coc3c2[C@@](C)(c2ccc4c(c2C3=O)CCC4=O)[C@@H]1O`: more than 200 µM and 28.8 µM. Turning to `CCN(CC)CCOCC1CCCN2CCCCC12` (centres undefined), the EC50 was more than 200 µM and the IC50 was more than 200 µM. Take `Nc1ncnc2c1ncn2[C@H]1C(CO)CC1(F)F` (some centres undefined): the EC50 was more than 182 µM and the IC50 was more than 182 µM. As to `CCCC(=O)N[C@@H](Cc1cc(I)c(O)c(I)c1)C(=O)NCCCNCCCCNCCCNC(=O)[C@@H](N)CCCN=C(N)N`, the EC50 was more than 100 µM and the IC50 came out at 44.7 µM. In the case of `C=C1C(=O)OC2C1CC[C@H](C)C13OC(=O)CC1[C@@]23C` (some centres undefined), the result was inactive. As to `CC1(Cl)C(=O)NC(=O)NC1O` (centres undefined), the EC50 was more than 200 µM and the IC50 was more than 200 µM. In the case of `Cc1ccnc(NC(=O)NC2CCCCC2)c1`, the EC50 is more than 200 µM and the IC50 turned out to be 145 µM. On to `[N-]=[N+]=C(C(=O)OCC#CCOC(=O)C(=[N+]=[N-])S(=O)(=O)c1ccccc1)S(=O)(=O)c1ccccc1`, for which the EC50 was more than 200 µM and the IC50 is 135 µM. Take `CC1CC(c2ccccc2)=Nc2ccccc2S1` (centres undefined): the EC50 is more than 14.1 µM and the IC50 was more than 14.1 µM. Regarding `CCCCCCCCCCCCCCCCCCOc1ccc2c(c1)-c1nc-2nc2[nH]c(nc3nc(nc4[nH]c(n1)c1cc(OCCCCCCCCCCCCCCCCCC)ccc41)-c1ccc(OCCCCCCCCCCCCCCCCCC)cc1-3)c1cc(OCCCCCCCCCCCCCCCCCC)ccc21`, the EC50 was more than 8.51 µM and the IC50 was more than 8.51 µM.
